According to patent publication US5589486A, “N-hydroxyalkyl-substituted 1,2,3,6-tetrahydro-pyridine and piperidine derivatives” (Richter Gedeon Vegyeszeti Gyar Rt., priority 1991, dated 1996):
Read-outs that look alike come from different tables or passages of the source.

Assays:
[1] = system: hypobaric hypoxia in SH rats; assay: Hypobaric hypoxia test (170 mmHg, survival time); type: in vivo, spontaneously hypertensive (SH) male rats; conditions: in words
Experimental: (§1) Male CFLP mice (from the Hungarian stock LATI) weighing 24-26 g each and spontaneously hypertensive (SH) male rats weighing 160-180 g each, respectively were used in these investigations. The compounds to be tested were orally administered in a volume of 10 ml/kg one hour prior to starting the experiment.
(§2) After a 16-hour starving and 1-hour pretreatment period, the animals were placed in a desiccator of 6 liters volume, where the pressure was decreased to 170 mmHg within 20 seconds. The survival time was registered from this time point up to the last respiratory movement of the animals. Animals having a survival time longer by 30% than the average survival time of the control group were considered to be protected. The ED50 values were calculated from the percentage of the animals protected by using probit analysis.
Various forms of hypoxia were used for investigating the compounds. The functional disorganization and destruction of cells and death, respectively in otherwise healthy mice are caused by a decrease in the oxygen-saturation of haemoglobin in the hypobaric hypoxia and the inhibition of the mitochondrial respiratory enzyme in the cytotoxic hypoxia. Spontaneously hypertensive (SH) rats are more sensitive against hypoxic conditions than normotensive animals; similarly, patients suffering from hypertension have a less chance of survival after hypoxic injuries.

[2] = system: cytotoxic hypoxia in mice; assay: Cytotoxic hypoxia test (potassium cyanide i.v., survival time); type: in vivo, mice (male CFLP); conditions: in words
hypoxia = assay: Antihypoxic effect, cytotoxic and hypobaric hypoxia tests taken together; type: in vivo, mice; spontaneously hypertensive (SH) rats; conditions: comparison of effects between tests, in words
Experimental: as §1
After a 1-hour pretreatment, the animals were intravenously injected with 5 mg/kg of potassium cyanide. Survival time was measured as an interval lasting from the administration of potassium cyanide to the last respiratory movement. In the groups consisting of 10 animals each treated with the compounds, the animals having a survival time longer by 30% than the average survival time of the placebo-treated group were considered to be protected. The ED50 values (i.e. the doses being effective in 50% of the animals) were calculated from the percentage of the surviving animals by using probit analysis.
as §2, with “Animals having a survival time longer by 30% than the average survival time of the control group were considered to be protected.” left out, “analysis. […]” for “analysis.”

[3] = Acute toxicity study in mice; set-up: species or system mice (OF-1, either sex); conditions: mouse, in vivo, po, maximal dose 1000 mg/kg
Experimental: OF-1 mice of either sex weighing 19-21 g were used. The test compound was administered through a catheter inserted into the stomach. A series of solutions was prepared, the concentrations were chosen to give a constant dosage volume of 0.1 ml/10 g. The observation time after the treatment was 72 hours. The LD50 value was calculated according to Litchfield and Wilcoxon from six dose responses (maximal dose 1000 mg/kg p.o., n=10).

[4] = 72 h observation, Litchfield and Wilcoxon, read-out: LD50

Compound: CC[C@]12CCCN3CCc4c(n(c5ccccc45)[C@@](O)(C(=O)OC)C1)[C@@H]32 [Vincamine, (+)-14β-hydroxy-14α-methoxycarbonyl-14,15-dihydroeburnamenine]
- action in hypobaric hypoxia [1]: prominent tolerance-enhancing action in hypobaric hypoxia
- antihypoxic effect in cytotoxic hypoxia [2]: most pronounced in cytotoxic hypoxia

Compound: NC(=O)CN1CCCC1=O [Piracetam, 2-oxo-1-pyrrolidinylacetic acid amide, reference compound]
- antihypoxic effect in the various tests of hypoxia (hypoxia): exerts its effect in the same two tests

Compound: OC(CN1CC=C(c2ccccc2)CC1)c1ccc(Cc2ccc(Cl)cc2)cc1 (stereo not shown) [A, 1-[4-(4-Chlorobenzyl)phenyl]-2-(4-phenyl-1,2,3,6-tetrahydro-1-pyridyl)ethanol]
- LD50 at 72 h [3, 4]: > 1000 mg/kg
- antihypoxic effect in the various tests of hypoxia (hypoxia): its effects are the same in the various tests of hypoxia

Compound: OC(CCN1CC=C(c2ccc(Cl)cc2)CC1)c1ccc(Cl)cc1Cl (stereo not shown) [E, 3-[4-(4-Chlorophenyl)-1,2,3,6-tetrahydro-1-pyridyl]-1-(2,4-dichlorophenyl)propanol]
- LD50 at 72 h [3, 4]: > 1000 mg/kg

Compound: OC(CCN1CCC(c2ccccc2)CC1)c1ccc(Cc2ccc(Cl)cc2)cc1 (stereo not shown) [B, 1-[4-(4-chlorobenzyl)phenyl]-3-(4-phenyl-1-piperidyl)propanol]
- LD50 at 72 h [3]: 697 mg/kg
